A short description of data set [1]: Solubility in phosphate buffered saline. The class given is physicochemical. To be noted: 10 mM phosphate buffered saline (0.138 M NaCl, 2.7 mM KCl), pH 7.4. The protocol: To a sample of the material of known mass were added known volumes of phosphate buffered saline until complete dissolution is observed. Suspensions were centrifuged for 5 min at 10000 rpm. […] Upon complete dissolution, the solution is diluted until the final concentration is 0.5 mg/mL to ensure that the material remains soluble over the entire range of concentrations.

Data set [2] concerns S. aureus ATCC 13709. Description: In vitro antibacterial susceptibility (MIC, broth microdilution). The class given is cell-based. Particulars: for MIC against S. aureus ATCC 13709, CAMHB: cation-adjusted Mueller-Hinton broth, 37° C., 18 h; for Antibacterial activity compared with oritavancin 5: deduced from the MIC data of Table 2; for MIC: Staphylococcus aureus. As for the experimental part: Susceptibility of S. aureus strain ATCC13709 to oritavancin (5) and synthesized compounds was determined following the guidelines set by the Clinical and Laboratory Standards Institute (formerly the National Committee for Clinical Laboratory Standards) (M26-A). Compounds were serially diluted two-fold in either DMSO (Oritavancin 5) or in PBS and transferred to cation-adjusted Mueller Hinton broth (CAMHB; Becton Dickinson). 50 μL of compounds diluted in CAMHB was mixed with 100 μL of bacteria diluted in CAMHB in 96-well microtiter plates. The final number of micro-organisms in the assay was 5×10^5 c.f.u. per mL and the final concentration of DMSO in the assay, if present, was 1.25%. All solutions may contain 0.002% Tween as indicated. Assays were set up in duplicate and incubated at 37° C. for 18 h. The concentration of compound that inhibited visible growth was reported as the minimum inhibitory concentration (MIC).
On the technique in general: In broth dilution the organism is exposed to a series of concentrations in liquid medium.

The subject of data set [3] is S. aureus strain ATCC13709. Description: Neutropenic mouse thigh infection model. Type of data set: in vivo, mice. Particulars: for In vivo antibacterial efficacy compared with oritavancin: deduced from the data of Table 3; for Recovered bacterial titers per thigh, 1 mg/kg / Recovered bacterial titers per thigh, 10 mg/kg / Recovered bacterial titers per thigh, 40 mg/kg: neutropenic mice, 24 h postinfection; for Recovered bacterial titers per thigh, 1 mg/kg: 1 mg/kg one hour after inoculation; for Recovered bacterial titers per thigh, 10 mg/kg: 10 mg/kg one hour after inoculation; for Recovered bacterial titers per thigh, 40 mg/kg: 40 mg/kg one hour after inoculation. As for the experimental part: The susceptibility of S. aureus strain ATCC13709 to oritavancin (5) and selected synthesized compounds in vivo was evaluated with the well accepted neutropenic mouse thigh infection model (Craig, W. A. et al. Journal of Antimicrobial Chemotherapy (1991), 27 (Suppl. C):29-40). Mice were made neutropenic by treatment with cyclophosphamide (150 and 100 mg/kg of body weight administered intraperitoneally 4 days and 1 day prior to infection). Mice were anesthetized briefly with approximately 4% isoflurane just prior to inoculation. The bacterial suspension (0.1 mL) was injected intramuscularly into each thigh (approximately 10^5 colony forming units (CFU)/thigh). The selected agents were administered in 10% (w/w) β-hydroxypropylcyclodextrin in water at a concentration of 10 mg/mL one hour following bacterial inoculation. The animals were humanely sacrificed by CO2 asphyxiation 24 h postinfection. The entire thigh muscle mass including the bone was homogenized and diluted in 0.9% saline and aliquots were plated on Brain-Heart Infusion agar. Following overnight incubation at 37° C., bacteria were enumerated for each thigh and expressed as log10 CFU per thigh. This was performed over three independent experiments and oritavancin (5) was used as a comparator in each.

The text below walks through data of US8901072B2, “Glycopeptide and lipoglycopeptide antibiotics with improved solubility” (The Medicines Company, priority 2009, dated 2014).

Structures are written as SMILES. In brackets after ≈: the same amount, converted by molar mass. Several values for one entry are separate records, joined by “and”; a condition that tells them apart may be missing. Equal entries are not always repeated. Where two headings read alike, the source gives them in different places. Some results are limits rather than exact numbers.

For `CNC(CC(C)C)C(=O)NC1C(=O)NC(CC(N)=O)C(=O)NC2C(=O)NC3C(=O)NC(C(=O)NC(C(=O)OCC(=O)NCCCNCCCN)c4cc(O)cc(O)c4-c4cc3ccc4O)C(OC3CC(C)(N)C(O)C(C)O3)c3ccc(c(Cl)c3)Oc3cc2cc(c3OC2OC(CO)C(O)C(O)C2OC2CC(C)(NCc3ccc(-c4ccc(Cl)cc4)cc3)C(O)C(C)O2)Oc2ccc(cc2Cl)C1O` (stereo not drawn) [Compound 66], the “Solubility (mg/mL) PBS” value in data set [1] is listed as more than 100 mg/mL. For the same compound, in data set [2], the “MIC against S. aureus ATCC 13709, CAMHB + 0.002% tween” value (“MIC … CAMHB + 0.002% tween” for short) turned out to be 0.25 µg/mL; the “MIC against S. aureus ATCC 13709, CAMHB + 50% human serum” value (“MIC … CAMHB + 50% human serum” for short) amounted to 0.125 µg/mL; the “MIC against S. aureus ATCC 13709, CAMHB + 50% mouse serum” value (“MIC … CAMHB + 50% mouse serum” below) is 1 µg/mL; the “MIC against S. aureus ATCC 13709, CAMHB + 50% rat serum” value was determined as 0.125 µg/mL. In data set [2], the “MIC against S. aureus ATCC 13709, CAMHB” value was determined as 2 µg/mL (≈ 1.02 µM) and the “Antibacterial activity compared with oritavancin 5” value is listed as “within an order of magnitude of that of oritavancin 5”. In data set [3], the “In vivo antibacterial efficacy compared with oritavancin” value is “within the same order of magnitude than oritavancin itself”; the “Recovered bacterial titers per thigh, 1 mg/kg” value came out at 8.16 ± 0.49 Log10 CFU/thigh; the “Recovered bacterial titers per thigh, 10 mg/kg” value stood at 3.96 ± 1.74 Log10 CFU/thigh; the “Recovered bacterial titers per thigh, 40 mg/kg” value is given as 4.04 ± 0.51 Log10 CFU/thigh.
Regarding `CNC(CC(C)C)C(=O)NC1C(=O)NC(CC(N)=O)C(=O)NC2C(=O)NC3C(=O)NC(C(=O)NC(C(=O)OCC(=O)NCCN)c4cc(O)cc(O)c4-c4cc3ccc4O)C(OC3CC(C)(N)C(O)C(C)O3)c3ccc(c(Cl)c3)Oc3cc2cc(c3OC2OC(CO)C(O)C(O)C2OC2CC(C)(NCc3ccc(-c4ccc(Cl)cc4)cc3)C(O)C(C)O2)Oc2ccc(cc2Cl)C1O` (stereo not drawn) [Compound 90a], the “Solubility (mg/mL) PBS” value in data set [1] was “≧100 mg/mL”. In data set [2], the “MIC … CAMHB + 0.002% tween” value stood at 0.5 µg/mL; the “MIC … CAMHB + 50% human serum” value came to 0.25 µg/mL; the “MIC … CAMHB + 50% mouse serum” value was determined as 0.5 µg/mL; the “MIC against S. aureus ATCC 13709, CAMHB” value is 1 µg/mL (≈ 0.528 µM). Further, in data set [2], the “Antibacterial activity compared with oritavancin 5” value was “within an order of magnitude of that of oritavancin 5”. For the same compound, in data set [3], the “Recovered bacterial titers per thigh, 1 mg/kg” value was determined as 8.38 ± 0.23 Log10 CFU/thigh; the “Recovered bacterial titers per thigh, 10 mg/kg” value is listed as 6.13 ± 2.53 Log10 CFU/thigh; the “Recovered bacterial titers per thigh, 40 mg/kg” value is listed as 5.27 ± 2.66 Log10 CFU/thigh.
Turning to `CNC(CC(C)C)C(=O)NC1C(=O)NC(CC(N)=O)C(=O)NC2C(=O)NC3C(=O)NC(C(=O)NC(C(=O)OCC(=O)NCCCN)c4cc(O)cc(O)c4-c4cc3ccc4O)C(OC3CC(C)(N)C(O)C(C)O3)c3ccc(c(Cl)c3)Oc3cc2cc(c3OC2OC(CO)C(O)C(O)C2OC2CC(C)(NCc3ccc(-c4ccc(Cl)cc4)cc3)C(O)C(C)O2)Oc2ccc(cc2Cl)C1O` (stereo not drawn) [Compound 90b], the “Solubility (mg/mL) PBS” value in data set [1] was “≧100 mg/mL”. Besides, in data set [2], the “MIC … CAMHB + 0.002% tween” value is 0.5 µg/mL; the “MIC … CAMHB + 50% human serum” value was 0.25 µg/mL; the “MIC … CAMHB + 50% mouse serum” value came to 0.5 µg/mL; the “MIC against S. aureus ATCC 13709, CAMHB” value is 1 µg/mL (≈ 0.524 µM). Also, the “Antibacterial activity compared with oritavancin 5” value in data set [2] was “within an order of magnitude of that of oritavancin 5”. Moreover, in data set [3], the “Recovered bacterial titers per thigh, 1 mg/kg” value was 8.61 ± 0.16 Log10 CFU/thigh; the “Recovered bacterial titers per thigh, 10 mg/kg” value was found to be 6.44 ± 1.82 Log10 CFU/thigh; the “Recovered bacterial titers per thigh, 40 mg/kg” value came to 2.97 ± 2.35 Log10 CFU/thigh.
As for `CNC(CC(C)C)C(=O)NC1C(=O)NC(CC(N)=O)C(=O)NC2C(=O)NC3C(=O)NC(C(=O)NC(C(=O)SCC(=O)NCCCN)c4cc(O)cc(O)c4-c4cc3ccc4O)C(OC3CC(C)(N)C(O)C(C)O3)c3ccc(c(Cl)c3)Oc3cc2cc(c3OC2OC(CO)C(O)C(O)C2OC2CC(C)(NCc3ccc(-c4ccc(Cl)cc4)cc3)C(O)C(C)O2)Oc2ccc(cc2Cl)C1O` (stereo not drawn) [Compound 93], in data set [1], the “Solubility (mg/mL) PBS” value was “≧100 mg/mL”. In data set [2], the “MIC … CAMHB + 0.002% tween” value stood at 0.125 µg/mL; the “MIC … CAMHB + 50% human serum” value was 0.25 µg/mL; the “MIC … CAMHB + 50% mouse serum” value turned out to be 1 µg/mL; the “MIC against S. aureus ATCC 13709, CAMHB” value was found to be 0.5 µg/mL (≈ 0.26 µM). Moreover, the “Antibacterial activity compared with oritavancin 5” value in data set [2] was “within an order of magnitude of that of oritavancin 5”. Further, in data set [3], the “In vivo antibacterial efficacy compared with oritavancin” value is “within the same order of magnitude than oritavancin itself”; the “Recovered bacterial titers per thigh, 1 mg/kg” value is reported as 8.53 ± 0.49 Log10 CFU/thigh; the “Recovered bacterial titers per thigh, 10 mg/kg” value is given as 4.45 ± 1.68 Log10 CFU/thigh; the “Recovered bacterial titers per thigh, 40 mg/kg” value was 4.18 ± 1.70 Log10 CFU/thigh.
For `CNC(CC(C)C)C(=O)NC1C(=O)NC(CC(N)=O)C(=O)NC2C(=O)NC3C(=O)NC(C(=O)NC(C(=O)OCC[N+](C)(C)C)c4cc(O)cc(O)c4-c4cc3ccc4O)C(OC3CC(C)(N)C(O)C(C)O3)c3ccc(c(Cl)c3)Oc3cc2cc(c3OC2OC(CO)C(O)C(O)C2OC2CC(C)(NCc3ccc(-c4ccc(Cl)cc4)cc3)C(O)C(C)O2)Oc2ccc(cc2Cl)C1O` (stereo not drawn) [Compound 95], the “Solubility (mg/mL) PBS” value in data set [1] was “≧100 mg/mL”. In data set [2], the “MIC … CAMHB + 0.002% tween” value amounted to 0.25 µg/mL; the “MIC … CAMHB + 50% human serum” value is 0.5 µg/mL; the “MIC … CAMHB + 50% mouse serum” value came out at 2 µg/mL; the “MIC against S. aureus ATCC 13709, CAMHB + 50% rat serum” value amounted to 0.125 µg/mL. Further, in data set [2], the “MIC against S. aureus ATCC 13709, CAMHB” value came out at 1 µg/mL and the “Antibacterial activity compared with oritavancin 5” value is “within an order of magnitude of that of oritavancin 5”. In data set [3], the “In vivo antibacterial efficacy compared with oritavancin” value is listed as “within the same order of magnitude than oritavancin itself”; the “Recovered bacterial titers per thigh, 1 mg/kg” value was determined as 8.32 ± 0.17 Log10 CFU/thigh; the “Recovered bacterial titers per thigh, 10 mg/kg” value is 3.95 ± 1.57 Log10 CFU/thigh; the “Recovered bacterial titers per thigh, 40 mg/kg” value stood at 2.96 ± 0.96 Log10 CFU/thigh.
As usually defined, the MIC is the smallest concentration in the dilution series that meets the test's criterion for growth inhibition. As for `CN[C@H](CC(C)C)C(=O)N[C@H]1C(=O)N[C@@H](CC(N)=O)C(=O)N[C@H]2C(=O)N[C@H]3C(=O)N[C@H](C(=O)N[C@H](C(=O)O)c4cc(O)cc(O)c4-c4cc3ccc4O)[C@H](O[C@H]3C[C@](C)(N)[C@@H](O)[C@H](C)O3)c3ccc(c(Cl)c3)Oc3cc2cc(c3O[C@@H]2O[C@H](CO)[C@@H](O)[C@H](O)[C@H]2O[C@H]2C[C@](C)(NCc3ccc(-c4ccc(Cl)cc4)cc3)[C@@H](O)[C@H](C)O2)Oc2ccc(cc2Cl)[C@H]1O` [Oritavancin (5), oritavancin, reference compound], in data set [1], the “Solubility (mg/mL) PBS” value is reported as less than 0.1 mg/mL. The solubility in data set [1] (aqueous buffer, thermodynamic from solid, read-out: Solubility (mg/mL) PBS) was less than 0.1 mg/mL. The MIC came out at 1 µg/mL (≈ 0.558 µM) in data set [2] (ATCC13709, 18 h, read-out: MIC against S. aureus ATCC 13709, CAMHB); 0.125 µg/mL in data set [2] (ATCC13709, read-out: MIC against S. aureus ATCC 13709, CAMHB + 0.002% tween); 0.125 µg/mL in data set [2] (ATCC13709, read-out: MIC against S. aureus ATCC 13709, CAMHB + 50% human serum); 0.25 µg/mL in data set [2] (ATCC13709, read-out: MIC against S. aureus ATCC 13709, CAMHB + 50% mouse serum); 0.25 µg/mL in data set [2] (ATCC13709, read-out: MIC against S. aureus ATCC 13709, CAMHB + 50% rat serum). In data set [3] (1 mg/kg), the “Recovered bacterial titers per thigh, 1 mg/kg” value was 8.16 ± 0.38 Log10 CFU/thigh and 7.96 ± 0.93 Log10 CFU/thigh and 7.98 ± 0.11 Log10 CFU/thigh. Besides, the “Recovered bacterial titers per thigh, 10 mg/kg” value in data set [3] (10 mg/kg) is 5.19 ± 1.86 Log10 CFU/thigh and 3.81 ± 1.16 Log10 CFU/thigh and 3.03 ± 0.53 Log10 CFU/thigh. The “Recovered bacterial titers per thigh, 40 mg/kg” value in data set [3] (40 mg/kg) was 2.62 ± 0.18 Log10 CFU/thigh and 2.62 ± 0.51 Log10 CFU/thigh and 2.29 ± 0.70 Log10 CFU/thigh.
